US20200170968A1 (priority 2014, published 2020)

How the values were obtained:
[1] = system: Chronically HIV-infected U1 cells (monocytes); test: Reverse transcriptase (RT) activity as readout of virion production in chronically HIV-infected U1 cells; format: cell-based
U1 cells = test: U1 cell viability and proliferation ([3H]-thymidine incorporation); format: cell-based; conditions: HIV-infected U1 cells
Protocol: Chronically HIV-infected U1 cells (monocytes) were stimulated for 6 hours in the presence of NACA. Cytokines (IL-6, […]) or PMA were added and maintained in the cell cultures for 6 days, collecting supernatants daily. Cell viability and proliferation were checked by optical microscopy, and [3H]-thymidine incorporation, and calcein AM assay. Reverse transcriptase-polymerase chain reaction (RT-PCR) and reverse transcriptase (RT) activity assay as readout of virion production.

HIV infected PBMCs = test: Cell viability of HIV infected PBMCs; format: cell-based; conditions: varying concentrations of NACA
Protocol: (§1) Peripheral blood mononuclear cells (PBMC) were acutely infected with HIV-1 and stimulated with NACA. Cell viability was measured in HIV infected PBMCs with varying concentrations of NACA.

HIV-1 = test: HIV replication in acutely infected PBMC / lymphocytes; format: cell-based
Protocol: In some embodiments, the present invention relates to a method for inhibiting HIV replication. Data is attached reporting the results of an HIV study in lymphocytes with 100% block of replication at 20 mM concentration.
as §1

HIV-1 (IIIB) = test: Inhibition of HIV-1 replication in CEM cells (giant cell / syncytia formation); format: cell-based; conditions: for EC50: concentration required to protect CEM cells against the cytopathogenicity of HIV by 50%, HIV-1 (IIIB)
Protocol: (§2) CEM cells were suspended in fresh culture medium and infected with HIV-1 (IIIB) or HIV-2 (ROD) at 100 CCID50 per ml of cell suspension. 100 μl of the infected cell suspension were transferred to microplate wells, mixed with 100 μl of the appropriate dilutions of compounds, and further incubated at 37° C. After 4 days, giant cell formation was recorded microscopically and the number of giant cells was estimated as percentage of the number of giant cells present in the non-treated virus-infected cell cultures.

HIV-2 (ROD) = test: Inhibition of HIV-2 replication in CEM cells (giant cell / syncytia formation); format: cell-based; conditions: for EC50: concentration required to protect CEM cells against the cytopathogenicity of HIV by 50%, HIV-2 (ROD)
Protocol: as §2

CEM cells [2] = test: Cytostatic activity assay (cell proliferation, Coulter counter); format: cell-based; conditions: Homo sapiens, CCRF-CEM, 72 h, 50% inhibitory concentration of cell proliferation
Protocol: The cytostatic activity assay was performed in 96-well microliter plates. 5-7.5×10^4 cells and a given amount of the test compound were added to each well. The cells were allowed to proliferate for 72 h at 37° C. is a humidified CO2-controlled atmosphere. At the end of the incubation period, the cells were counted in a Coulter counter. The IC50 (half maximal inhibitory concentration) was defined as the concentration of the compound that inhibited cell proliferation by 50%.

CEM cells [3] = test: Viability test (trypan blue); format: cell-based, Human; conditions: concentrations up to 10 mM
Protocol: CEM cells (3×10^5 cells/ml) were seeded and grown in the presence or absence of indicated concentrations of NACA. The medium was replaced and added new NACA after two days. After 48 and 96 hours, respectively, aliquots of the cells were harvested and combined with trypan blue dye before analyzed microscopically on a hemocytometer counting chamber. Blue cells were counted as nonviable and to estimate the amount of viable cells the amount of live cells was compared to the total amount of cells.

viral RT = molecular target: T1, viral RT (Human immunodeficiency virus type 1 group M subtype B, UniProt P04585); test: Reverse transcriptase (RT) inhibition, Lenti RT Activity kit; format: biochemical, HIV; conditions: 25 μM
T1 construct: endogenous in cells; host or cells: viral sample (virus-containing supernatant; probably from PMA-induced ACH-2 cells, inferred)
Protocol: The ability of the compounds to inhibit the activity of viral RT was determined by a Lenti RT Activity kit (Cavidi, Uppsala, Sweden) according to the manufacturer's instructions (protocol A): A poly-A plate was incubated with the reaction buffer for up to 1 h at 33° C. Afterwards, the viral sample together with NACA, an inhibition control (nevirapin) or a vehicle control (DMSO) were added and incubated overnight at 33° C. The plate was washed, exposed to the tracer for 90 min at 33° C. and washed again, before the substrate was added. The plate was incubated in the dark and subsequently read at 405 nm in a Multiskan RC (Labsystem).
For the data shown in FIG. 13A, a poly-A plate was incubated with the reaction buffer and subsequently, the viral sample (1:500 dilution) together with the NACA, nevirapin (inhibition control) or DMSO (vehicle control) was added and incubated overnight. The plate was exposed to the tracer and the substrate was added. The plate was incubated in the dark and read at 405 nm. The value for the vector control (DMSO) was set to 100% in each individual repeat and all other values were normalized to this reference value. The data shown in FIG. 13A are means of three independent experiments; the error bars represent the SEM. P-values are indicated if significant (*: p<0.05; **: p<0.01; ***: p<0.001).

[4] = molecular target: T2, recombinant HIV-1 protease (Human immunodeficiency virus type 1 group M subtype B, UniProt P04585); test: Protease inhibition, SensoLyte HIV-1 protease assay kit; format: biochemical
T2 construct: Recombinant HIV-1 protease was purchased from AnaSpec Inc; purchased AnaSpec Inc
Protocol: The ability of NACA to inhibit the activity of recombinant HIV-1 protease was determined by a SensoLyte […] HIV-1 protease assay kit (AnaSpec Inc.) according to manufacturer's instructions: The compounds and the HIV-1 protease were added to a dark-bottom 96 well plate and the following controls were included: positive control (without NACA), inhibition control (pepstatin A), vehicle control (DMSO), NACA controls (to test for autofluorescence) and substrate control (assay buffer only). The plate as well as the HIV-1 protease substrate solution were incubated 15 minutes at 37° C. and 50 μl protease substrate was added to all wells. The fluorescence was measured at Ex/Em=490 nm/520 nm with a Varioskan Flash (Thermo Electron Corporation).
For the data shown in FIG. 13B, the HIV-1 protease together with NACA, a positive control (pepstatin A) or DMSO (vehicle control) were added to a dark-bottom 96 well plate. The plate as was incubated and protease substrate was added to all wells. The fluorescence was measured at Ex/Em=490 nm/520 nm. The value for the vector control (DMSO) was set to 100% in each individual repeat and all other values were normalized to this reference value. The data are means of three independent experiments; the error bars represent the SEM. P-values are indicated if significant (*: p<0.05; **: p<0.01; ***: p<0.001).

[5] = system: viral integration in TZM-b1 cells; test: Infectivity assay in TZM-b1 cells (luciferase; viral integration); format: cell-based, HIV-1; conditions: 10 mM; 40 h
Protocol: 1×10^5 TZM-b1 cells were infected with diluted virus suspension (see 2.3 Virus expression) in a total of 0.2 ml DMEM medium in the presence of NACA, an inhibition control (nevirapin) or a vehicle control (DMSO). After 40 h at 37° C., the cells were assayed in a Luminoskan Ascent (Thermo Labsystems) for luciferase activity using the OneGlo luciferase assay system (Promega).
To determine additional targets of NACA inhibition within early stage processes of viral integration (viral entry to integration into the host genome), an infectivity assay was performed. TZM-b1 cells contain a luciferase gene that is under control of the HIV-1 promoter. Upon viral entry, transcription and integration into the host genome, luciferase is expressed and can convert the added substrate to the fluorescent product. The amount of measured product is quantitatively correlated to the amount of integrated virus in the test culture.
For the data in FIG. 14, TZM-b1 cells were infected with a diluted virus suspension in a total of 0.2 ml DMEM medium in the presence of the 25 μM or 10 mM NACA, an inhibition control (nevirapin) or a vehicle control (DMSO). Additionally, one well was treated with medium only instead of the virus dilution (no virus, negative control). After 40 h, the cells were assayed for luciferase activity. […] P-values were calculated between the vehicle control and the individual treatments. […]

p24 in ACH-2 cells = test: Production of viral particles (p24) in PMA-stimulated ACH-2 cells; format: cell-based, HIV; conditions: ACH-2 cells with PMA, 3 days, indicated amounts of NACA
Protocol: ACH-2 cells (1×10^6 cells/ml) were cultured with 100 nM PMA. After three days the cell culture supernatant was collected, cleared by centrifugation at 300×g for 10 min and passed through a 0.45 μm filter. p24 content was measured in an Architect i2000SR (Abbott Laboratories, Ill., USA) as a measurement for virus content and supernatant was either used directly or frozen at −80° C. for later usage.
(§3) To measure the infectivity of particles produced in the presence of the compounds, ACH-2 cells (1×10^6 cells/ml) were cultured with 100 nM PMA in the presence of the indicated amount of NACA or DMSO (negative control). After 3 days, the p24 content of the clarified supernatant (see 2.3 Virus expression) was measured. The supernatant was used for an infectivity test (see 2.4 Infectivity test) without the addition of any compound to the wells. The final dilution of the viral supernatant in the infectivity test was 1:100. A control experiment was performed, in which virus particles produced without the addition of NACA, were used for the infectivity test.
For the data in FIG. 15A, ACH-2 cells were cultured with […] in the presence of the indicated amount of NACA, DMSO (vector control=0 mM NACA) or no additive (control). After 3 days, the supernatant was clarified and the amount of p24 was measured by ELISA. […] P-values were calculated between the vehicle control and the individual treatments. […]

HIV particles = test: Infectivity of viral particles produced in the presence of NACA (TZM-b1 luciferase); format: cell-based
Protocol: as §3
For the data in FIG. 15B, the clarified supernatant was further used for an infectivity test without the addition of any compound to the wells. The NACA amount stated in the graph refers to the amount in which the HIV producing cells were grown. TZM-b1 cells were infected with the diluted virus suspensions in a total of 0.2 ml DMEM (total dilution of virus supernatant: 1:100). After 40 h, the cells were assayed for luciferase activity. Additionally, a control experiment was performed, in which virus particles produced in the control set up, were used for the infectivity test. The same amount of NACA that could have been carried over with the virus containing supernatant in the original experiment was added to the infectivity test (final concentration: 1/100 of the indicated amount in the viral growth culture). The value for the control was set to 100% in each individual repeat and all other values were normalised these reference values. The data are means of three independent experiments; the error bars represent the SEM. P-values were calculated between the vehicle control and the individual treatments. P-values are indicated if significant (*: p<0.05; **: p<0.01; ***:p<0.001).

SMILES: CC(=O)N[C@@H](CS)C(N)=O
- reverse transcriptase activity ([1]; U1 cells activated with 1 ng/mL TNF-α or 10 ng/mL IL-6): significant reduction
- concentration effective in reducing HIV replication in activated U1 cells (RT activity) ([1]; U1 cells activated with 1 ng/mL TNT-α, 10 ng/mL IL-6 or 10 nM PMA): 1 to 10 µM
- relative amounts of reverse transcriptase activity ([1]; U1 cells, between days 3 and 5): did not alter
- concentration effective in reducing HIV replication in activated U1 cells ([1]; activated U1 cells): 10 to 333 µM
- U1 cell viability or proliferation as measured by [3H]-thymidine incorporation (U1 cells): did not have a large effect
- cell viability (HIV infected PBMCs): did not affect cell viability
- effect on HIV replication (HIV-1; HIV infected PBMCs): inhibitor effect
- HIV replication inhibited (HIV-1; HIV infected PBMCs, concentrations of 10 mM and above): ~100%
- block of replication (HIV-1; lymphocytes, 20 mM concentration): 100%
- Ratio IC50/EC50 (CEM) HIV-1 (HIV-1 (IIIB); CEM cells): 3
- EC50 (HIV-1 (IIIB); Human immunodeficiency virus 1, IIIB, CCRF-CEM): ~230 µM
- EC50 (HIV-1 (IIIB)): 224 ± 86 µM
- Ratio IC50/EC50 (CEM) HIV-2 (HIV-2 (ROD); CEM cells): 2
- EC50 (HIV-2 (ROD); Human immunodeficiency virus 2, CCRF-CEM): ~230 µM
- EC50 (HIV-2 (ROD)): 234 µM
- IC50 (CEM cells [2]): ~564 µM
- CEM cells alive (CEM cells [3]): more than 99%
- effect on viral RT activity (viral RT): no effect
- effect on viral protease activity ([4]; 25 μM): no effect
- effect on protease activity ([4]; 10 mM): significant effect
- effect on viral integration [5]: more predominant effect
- amount of p24 (p24 in ACH-2 cells): not affected
- effect on infectivity when NACA was added after the production of the viral particles (NACA added) (HIV particles; final concentration 1/100 of the indicated amount): not visible
- infectivity of the particles produced in the presence of NACA (NACA grown) (HIV particles; higher concentrations (5 mM to 10 mM)): decreased significantly
- infectivity of the particles produced in the presence of NACA (NACA grown) (HIV particles; low concentrations (0 mM to 1 mM)): auxiliary effect
